Results reported in patent publication US11939298B1, “5-(4,5-bis(4-bromophenyl)-2-(4-chlorophenyl)-1H-imidazol-1-yl)pentanoic acid as an antimicrobial compound” (KING FAISAL UNIVERSITY, priority 2023, dated 2024).

Assays:
Format in all cases: cell-based
[1] = tested on: Aspergillus flavus; assay: Agar plate disc-diffusion, antifungal, Aspergillus flavus; conditions: Sabouraud's dextrose agar, 37° C., 72 hours, DMSO zone subtracted; for inhibition zone, Aspergillus flavus, B: B = concentration of comp. = 30,000 μL
Protocol: (§1) The agar plate disc-diffusion method was applied. […] The discs were then placed onto the surface of agar plates (nutrient agar for bacteria and Sabouraud's dextrose agar for fungi) seeded with the test organism. Each plate contained 15 mL of the agar medium, previously seeded with 0.2 mL of the broth culture of each organism pregrown for 18 hours. The plates were incubated at 37° C. for 48 hours, and 72 hours for fungi. The inhibition zones was measured in mm. Discs impregnated with DMSO were used as a control, and its inhibition zone was subtracted from the tested compound actual inhibition zone.
(§2) Their antibacterial screened against gram positive bacteria namely Bacillus cereus and Staphylococcus aureus and gram-negative bacterial strains namely Pseudomonas aeruginosa and Escherichia coli, while their antifungal activity screened against Aspergillus flavus and Chrysosporium keratinophilum as shown in tables 1 and 2 using ciprofloxacin as a reference.

[2] = tested on: Staphylococcus aureus; assay: Agar plate disc-diffusion, antibacterial, Staphylococcus aureus; conditions: nutrient agar, 37° C., 48 hours, DMSO zone subtracted; for inhibition zone, Staphylococcus aureus, A: A = concentration of comp. = 10,000 μL
Protocol: as §1, §2

[3] = tested on: Bacillus cereus; assay: Agar plate disc-diffusion, antibacterial, Bacillus cereus; conditions: nutrient agar, 37° C., 48 hours, DMSO zone subtracted
Protocol: as §1, §2

[4] = tested on: Chrysosporium keratinophilum; assay: Agar plate disc-diffusion, antifungal, Chrysosporium keratinophilum; conditions: Sabouraud's dextrose agar, 37° C., 72 hours, DMSO zone subtracted
Protocol: The agar plate disc-diffusion method was applied. Sterilized filter papers (6 mm in diameter) were wetted with 10 μL of a solution of 5-(4,5-bis(4-bromophenyl)-2-(4-chlorophenyl)-1H-imidazol-1-yl)pentanoic acid (V) to be tested, containing 10 mg/mL in DMSO, and the discs were allowed to air dry. The discs were then placed onto the surface of agar plates (nutrient agar for bacteria and Sabouraud's dextrose agar for fungi) seeded with the test organism. Each plate contained 15 mL of the agar medium, previously seeded with 0.2 mL of the broth culture of each organism pregrown for 18 hours. The plates were incubated at 37° C. for 48 hours, and 72 hours for fungi. The inhibition zones was measured in mm. Discs impregnated with DMSO were used as a control, and its inhibition zone was subtracted from the tested compound actual inhibition zone.
as §2

[5] = tested on: Escherichia coli; assay: Agar plate disc-diffusion, antibacterial, Escherichia coli; conditions: nutrient agar, 37° C., 48 hours, DMSO zone subtracted
Protocol: as §1, §2

[6] = tested on: Pseudomonas aeruginosa; assay: Agar plate disc-diffusion, antibacterial, Pseudomonas aeruginosa; conditions: nutrient agar, 37° C., 48 hours, DMSO zone subtracted
Protocol: as §1, §2

[7] = A = concentration of comp. = 10,000 μL
[8] = B = concentration of comp. = 30,000 μL
[9] = C = concentration of comp. = 50,000 μL

Compound | inhibition zone, Aspergillus flavus, B [1] [mm] | inhibition zone, Staphylococcus aureus, A [2] [mm] | inhibition zone, Bacillus Cereus, A [3, 7] [mm] | inhibition zone, Bacillus Cereus, B [3, 8] [mm] | inhibition zone, Bacillus Cereus, C [3, 9] [mm] | inhibition zone, Chrysosporium keratinophilum, A [4, 7] [mm] | inhibition zone, Chrysosporium keratinophilum, B [4, 8] [mm] | inhibition zone, Chrysosporium keratinophilum, C [4, 9] [mm] | inhibition zone, Escherichia coli, A [5, 7] [mm] | inhibition zone, Escherichia coli, B [5, 8] [mm] | inhibition zone, Escherichia coli, C [5, 9] [mm] | inhibition zone, Aspergillus flavus, A ([1]; A = concentration of comp. = 10,000 μg/mL) [mm] | inhibition zone, Aspergillus flavus, C [1, 9] [mm] | inhibition zone, Pseudomonas aeruginosa, A ([6]; A = concentration of comp. = 10 mg/mL) [mm] | inhibition zone, Pseudomonas aeruginosa, B [6, 8] [mm] | inhibition zone, Pseudomonas aeruginosa, C [6, 9] [mm] | inhibition zone, Staphylococcus aureus, B [2, 8] [mm] | inhibition zone, Staphylococcus aureus, C [2, 9] [mm]
O=C(O)c1cn(C2CC2)c2cc(N3CCNCC3)c(F)cc2c1=O [Cip., ciprofloxacin, reference compound] | 32 | 42 |  |  |  |  |  |  |  |  |  |  |  |  |  |  |  | 
O=C(O)CCCCn1c(-c2ccc(Cl)cc2)nc(-c2ccc(Br)cc2)c1-c1ccc(Br)cc1 [V, 5-(4,5-bis(4-bromophenyl)-2-(4-chlorophenyl)-1H-imidazol-1-yl)pentanoic acid] | 23 | 16 | 24 | 26 | 38 | 26 | 27 | 44 | 28 | 36 | 51 | 18 | 31 | 24 | 30 | 44 | 21 | 29
